Results as given in patent publication US20110086851A1, “SUBSTITUTED QUINAZOLINES AND THEIR USES FOR MYEOLOPROLIFIC AND THROMBOTIC DISEASES” (priority 2008, published 2011).
Where a name gives a salt, the structure may show the parent alone.

Legend:
[1] = in vivo; cited from earlier work
[2] = test system: human phosphodiesterase III (PDE III); assay: PDE III inhibition; assay type: biochemical
Text: In early volunteer trials, the most frequently reported adverse effects AEs other than headache were palpitations, postural dizziness and nausea. During patient studies, the most frequently reported drug-related AEs were headache, palpitations, oedema/fluid retention, nausea/vomiting, diarrhea, dizziness and abdominal pain. These effects are all likely to arise from the secondary, cardiovascular pharmacology associated with anagrelide resulting from its inhibitory effects on human phosphodiesterase III (PDE III). […] Inhibition of myocardial PDE III leads to positive inotropy (increasing of the force of contractions of the heart), increased chronotropy (increase in heart rate), and peripheral vasodilatation. Such cardiovascular manifestations of this inhibition are typically seen with the classical positive inotropes, milrinone and enoximone, and exploited in the short-term acute treatment of congestive heart failure. However, in the treatment of a so-called silent disease (i.e., asymptomatic) such as ET, the cardiovascular side-effects of palpitations and tachycardia associated with anagrelide limit its utility and a significant proportion of patients—reportedly between 25 and 50%—fail to tolerate the drug during long term treatment.

[3] = test system: human megakaryocytopoiesis; conditions: cited from earlier work
[4] = Pharmacokinetics in humans; assay type: in vivo, human; conditions: after anagrelide treatment
Text: The metabolism of anagrelide generally proceeds extremely rapidly, resulting in a less than ideal pharmacokinetic profile of the drug. […] This, combined with the side-effects profile, can lead to poor patient compliance. Furthermore, anagrelide undergoes a large first pass effect (>50%) leading to considerable intersubject variation in achieved exposures and, therefore, potentially variable drug response. Also, exposure to the pharmacologically active metabolite varies dramatically between patients since its formation is dependent on CYP1A, an enzyme whose expression is highly dependent on exposure to inducing agents such as cigarette smoke. Overall, this may result in the need for careful dose titration in patients being treated with anagrelide.

[5] = biological target: human phosphodiesterase III (PDE III); conditions: cited from earlier work
[6] = test system: erythroid or myelomonocytic differentiation; conditions: stimulated by erythropoietin or granulocyte-macrophage colony-stimulating factor; cited from earlier work

Row | potency as PDE III inhibitor relative to anagrelide [2] | exposure in vivo relative to the parent drug [4] | SMILES | typical half-life [1] | potency of inhibition of megakaryocytopoiesis relative to the parent drug [3] | IC50 [5] | first pass effect [1] | IC50 ([3]; in vitro, dose-dependent, read-out: estimated IC50, inhibition of TPO-induced megakaryocytopoiesis) | effect on erythroid or myelomonocytic differentiation [6]
1 | over 40 fold | 2-3 fold | O=C1NC2=Nc3ccc(Cl)c(Cl)c3CN2C1O (stereo not drawn) [3-hydroxyanagrelide] | 2.5 h | no more potent than the parent drug |  |  |  | 
2 |  |  | Cc1[nH]c(=O)c(C#N)cc1-c1ccncc1 [milrinone] |  |  | 170 to 350 nM |  |  | 
3 |  |  | O=C1CN2Cc3c(ccc(Cl)c3Cl)N=C2N1 [Anagrelide, 6,7-dichloro-1,5-dihydroimidazo[2,1-b]-quinazolin-2(3H)-one hydrochloride monohydrate] |  |  | ~29 nM | > 50% | ~26 nM | does not affect
